{"source": "paper PMC7178819", "about": "“6,7-Dimethoxy-2-phenethyl-1,2,3,4-tetrahydroisoquinoline amides and corresponding ester isosteres as multidrug resistance reversers” (Journal of Enzyme Inhibition and Medicinal Chemistry, 2020)", "key": {"[1]": {"assay": "Stability test in human plasma (LC-MS/MS)", "format": "in vitro ADME", "details": "1 µM, 37 °C", "protocol": "(§1) Each sample was prepared adding 10 µL of working solution 1 to 100 µL of tested matrix (PBS or human plasma) in micro centrifuge tubes. The obtained solutions correspond to 1 µM of analyte.\nAfter the incubation, the samples were added with 300 µL of ISTD solution and centrifuged (room temperature for 5 min at 10,000 rpm). The supernatants were transferred in auto sampler vials and dried under a gentle stream of nitrogen.\n(§2) The dried samples were dissolved in 1.0 ml of 10 mM of formic acid in mQ water: acetonitrile 80:20 solution. The obtained sample solutions were analysed by LC-MS/MS methods described in Supplementary material.\n(§3) For this purpose, a series of experiments were carried out, adding a known amount of analyte in both phosphate buffer solution (PBS) and in human plasma. The samples were analysed by LC-MS/MS method operating in Multiple Reaction Monitoring (MRM) mode[55].\nThe analyte concentration (1 µM) used during the stability tests is generally smaller than the corresponding Michaelis–Menten constant (KM); therefore, the enzymatic degradation rate is described by a first-order kinetic. Then, by plotting the natural logarithm of the quantitative data versus the incubation time, a linear function can be used and its slope represents the degradation rate (k)."}, "P-gp [2]": {"target": "T1, P-gp (Homo sapiens, UniProt P08183)", "T1 construct": "expressed in transfected cells; host or cells: MDCK-MDR1 (Madin-Darby Canine Kidney cells, gift of Prof. P. Borst, NKI-AVL)", "T1 sequence (P08183 whole entry)": "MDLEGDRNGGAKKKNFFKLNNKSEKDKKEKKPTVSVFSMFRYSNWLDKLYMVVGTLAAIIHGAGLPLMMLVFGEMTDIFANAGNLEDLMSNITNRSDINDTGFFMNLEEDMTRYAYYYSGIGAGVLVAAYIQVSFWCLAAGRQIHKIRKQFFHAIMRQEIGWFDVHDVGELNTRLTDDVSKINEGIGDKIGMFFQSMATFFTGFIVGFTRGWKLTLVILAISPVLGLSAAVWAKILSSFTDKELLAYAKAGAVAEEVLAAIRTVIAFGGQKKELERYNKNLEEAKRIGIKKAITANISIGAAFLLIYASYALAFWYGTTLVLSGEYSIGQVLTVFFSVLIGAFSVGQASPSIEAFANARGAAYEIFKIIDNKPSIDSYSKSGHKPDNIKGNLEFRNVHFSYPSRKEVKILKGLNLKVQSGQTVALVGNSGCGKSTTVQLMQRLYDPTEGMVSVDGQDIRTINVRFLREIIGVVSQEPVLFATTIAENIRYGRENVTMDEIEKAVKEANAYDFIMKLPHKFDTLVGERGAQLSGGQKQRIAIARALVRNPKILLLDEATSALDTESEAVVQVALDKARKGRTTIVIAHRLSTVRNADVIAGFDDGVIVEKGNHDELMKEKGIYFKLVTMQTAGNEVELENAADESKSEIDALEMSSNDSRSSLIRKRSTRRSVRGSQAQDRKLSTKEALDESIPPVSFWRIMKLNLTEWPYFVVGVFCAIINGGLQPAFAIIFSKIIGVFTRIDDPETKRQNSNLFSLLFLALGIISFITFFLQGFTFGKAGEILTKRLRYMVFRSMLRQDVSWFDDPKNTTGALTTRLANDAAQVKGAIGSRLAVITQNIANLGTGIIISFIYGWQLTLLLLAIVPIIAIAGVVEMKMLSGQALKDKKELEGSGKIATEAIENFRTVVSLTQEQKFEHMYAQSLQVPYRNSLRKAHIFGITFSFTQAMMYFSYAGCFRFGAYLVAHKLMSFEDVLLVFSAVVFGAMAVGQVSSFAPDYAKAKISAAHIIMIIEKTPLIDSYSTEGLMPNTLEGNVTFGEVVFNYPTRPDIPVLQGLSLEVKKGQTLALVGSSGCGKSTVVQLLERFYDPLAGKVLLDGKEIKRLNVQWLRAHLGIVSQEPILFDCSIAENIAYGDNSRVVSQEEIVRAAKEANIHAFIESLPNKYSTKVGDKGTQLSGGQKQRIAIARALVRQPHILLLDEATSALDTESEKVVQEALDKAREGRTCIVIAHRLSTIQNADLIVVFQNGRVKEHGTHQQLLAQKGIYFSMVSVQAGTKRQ", "assay": "ATP cell depletion (ATPlite assay) in MDCK-MDR1 cells", "format": "cell-based", "details": "Yes/No", "protocol": "The MDCK-MDR1 cells were seeded into 96-well microplate in 100 µL of complete medium at a density 20,000 cells per well. The plate was incubated overnight (O/N) in a humidified atmosphere 5% CO2 at 37 °C. The medium was removed and 100 µL of complete medium either alone or containing different concentrations (ranging from 1 to 100 µM) of test compounds was added. The plate was incubated for 2 h in a humidified 5% CO2 atmosphere at 37 °C. 50 µL of mammalian cell lysis solution was added to all wells and the plate shacked for five minutes in an orbital shaker. 50 µL of substrate solution was added to all wells and the plate shacked for five minutes in an orbital shaker. The plate was dark adapted for ten minutes and the luminescence was measured.\n(§4) The interaction potency between the designed compounds and P-gp was evaluated by measuring the transport inhibition of the pro-fluorescent probe Calcein-AM, that is a P-gp substrate, in a cell line overexpressing P-gp (MDCK-MDR1)[47]. The P-gp interacting profile was further investigated with two other assays: the Apparent Permeability (Papp) determination (BA/AB) in Caco-2 cell monolayer[48]^,[49], and the ATP cell depletion in the MDCK-MDR1 cell line[50]. Taking into account the results of the combined tests, an interacting compound can be classified as substrate or inhibitor. Papp determination measures the ratio between two fluxes: from the basolateral to apical compartments (BA, representative of passive diffusion) and from the apical to basolateral compartments (AB, representative of active transport). […] In the same manner, if (BA/AB) >2, the compound should probably be classified as a substrate. […] The selectivity of ligands 1–26 was evaluated by detecting their activity towards the other ABC transporters MRP1 and BCRP, by measuring the inhibition of the efflux of Calcein-AM (i.e., also a MRP1 substrate) in cells overexpressing MRP1 (MDCK-MRP1 cells), and the inhibition of the efflux of the fluorescent probe Hoechst 33342 (i.e. a BCRP substrate) in cells overexpressing BCRP (MDCK-BCRP cells), respectively."}, "[3]": {"assay": "Apparent permeability (Papp) determination (BA/AB) in Caco-2 cell monolayer", "format": "in vitro ADME", "details": "human, Caco-2 monolayer", "protocol": "Caco-2 cells were seeded onto a Millicell® assay system (Millipore), where a cell monolayer is set in between a filter cell and a receiver plate, at a density of 10 000 cells/well[46]. The culture medium was replaced every 48 h and the cells kept for 21 days in culture. The Trans Epithelial Electrical Resistance (TEER) of the monolayers was measured daily, before and after the experiment, using an epithelial volt-ohmmeter (Millicell®-ERS). Generally, TEER values greater than 1000 Ω for a 21 days culture, are considered optimal.\nAfter 21 days of Caco-2 cell growth, the medium was removed from filter wells and from the receiver plate, which were filled with fresh HBSS buffer (Invitrogen). This procedure was repeated twice, and the plates were incubated at 37 °C for 30 min. After incubation time, the HBSS buffer was removed and drug solutions and reference compounds were added to the filter well at the concentration of 100 µM, while fresh HBSS was added to the receiver plate. The plates were incubated at 37 °C for 120 min. Afterwards, samples were removed from the apical (filter well) and basolateral (receiver plate) side of the monolayer to measure the permeability.\nas §4"}, "[4]": {"assay": "Stability test in phosphate buffer solution (PBS)", "format": "physicochemical", "details": "1 µM, 37 °C, up to 120 min", "protocol": "as §1\nEach set of samples was incubated in triplicate at four different times, 0, 30, 60 and 120 min at 37 °C. Therefore, the degradation profile of each analyte was represented by a batch of 12 samples (4 incubation times × 3 replicates). After the incubation, the samples were added with 300 µL of ISTD solution and centrifuged (room temperature for 5 min at 10,000 rpm). The supernatants were transferred in auto sampler vials and dried under a gentle stream of nitrogen.\nas §2\nas §3, with “Due to the presence of ester or amide groups in the structure of compounds 1–26, a study aimed to evaluate their susceptibility to spontaneous or enzymatic hydrolysis, was planned. For” for “For”, “mode[55]. […]” for “mode[55].”"}, "P-gp [5]": {"target": "T1, P-gp", "assay": "Inhibition of Calcein-AM transport in MDCK-MDR1 cells", "format": "cell-based", "details": "Calcein-AM, MDCK-MDR1 cells; mean ± SEM of two experiments", "protocol": "These experiments were carried out as previously described by Teodori et al. with minor modifications. Each cell line (30 000 cells per well) was seeded into black CulturePlate 96/wells plate with 100 µL medium and allowed to become confluent overnight. 100 µL of test compounds were solubilised in culture medium and added to monolayers, with final concentrations ranging from 1 nM to 100 µM. 96/Wells plate was incubated for 30 min in a humidified atmosphere 5% CO2 at 37 °C. Calcein-AM was added in 100 µL of Phosphate Buffered Saline (PBS) to yield a final concentration of 2.5 µM and plate was incubated for 30 min in a humidified atmosphere 5% CO2 at 37 °C. Each well was washed 3 times with ice cold PBS. Saline buffer was added to each well and the plate was read with Victor3 (PerkinElmer) at excitation and emission wavelengths of 485 and 535 nm, respectively. In these experimental conditions, Calcein cell accumulation in the absence and in the presence of tested compounds was evaluated and fluorescence basal level was estimated with untreated cells. In treated wells the increase of fluorescence with respect to basal level was measured. EC50 values were determined by fitting the fluorescence increase percentage versus log[dose].\nThe interaction potency between the designed compounds and P-gp was evaluated by measuring the transport inhibition of the pro-fluorescent probe Calcein-AM, that is a P-gp substrate, in a cell line overexpressing P-gp (MDCK-MDR1)[47]. The P-gp interacting profile was further investigated with two other assays: the Apparent Permeability (Papp) determination (BA/AB) in Caco-2 cell monolayer[48]^,[49], and the ATP cell depletion in the MDCK-MDR1 cell line[50]. […] Papp determination measures the ratio between two fluxes: from the basolateral to apical compartments (BA, representative of passive diffusion) and from the apical to basolateral compartments (AB, representative of active transport). […] In the same manner, if (BA/AB) >2, the compound should probably be classified as a substrate."}}, "data": [{"smiles": "COc1cncc(C(=O)Nc2ccc(CCN3CCc4cc(OC)c(OC)cc4C3)cc2)n1", "note": "[Compound 12, N-(4–(2-(6,7-dimethoxy-3,4-dihydroisoquinolin-2(1H)-yl)ethyl)phenyl)-6-methoxypyrazine-2-carboxamide]", "values": [{"measurement": "stability in human plasma", "setting": "[1]; up to 120 min", "result": "stable over 120 min"}, {"measurement": "half-life at 1 µM", "setting": "[1]; human, human plasma", "result": "≥ 4", "unit": "h"}, {"measurement": "ATP cell depletion", "setting": "P-gp [2]", "result": "No"}, {"measurement": "efflux ratio at 120 min, 100 µM", "setting": "[3]", "result": 6}, {"measurement": "stability in PBS", "setting": "[4]", "result": "unmodified"}, {"measurement": "EC50", "setting": "P-gp [5]", "result": "870 ± 170", "unit": "nM"}]}]}
